Experimental data taken from patent publication US20230201161A1, “Combination comprising HDAC inhibitor, LAG-3 inhibitor and a PD-1 inhibitor or PD-L1 inhibitor for cancer treatment” (4SC AG, priority 2018, published 2023).

Tests used:
[1] = system: different types of blood cancer; conditions: cited from earlier work
[2] = system: Colon 38 (C38, a C57BL/6J mouse colon adenocarcinoma cell line) tumor; assay: C38 (Colon 38) subcutaneous tumor model, tumor volume; type: in vivo; conditions: female C57BL/6J mice, 20 per group; 4SC-202 20 mg/kg PO twice daily x24; antibodies 10 mg/kg IP (anti-PD1 TWx2, anti-LAG-3 Q3Dx4); data to day 27
Protocol: • 4SC-202 (tosylate salt). • Anti-PD1 antibody (clone: RMP1-14, catalog: BE0146, isotype: Rat IgG2a, Bioxcell), • Anti-LAG-3 antibody (clone: C9B7W, catalog: BE0174, isotype: Rat lgG1, Bioxcell),
• 4SC-202 was suspended in 2% aqueous methocel solution at 2 mg/ml (active compound). • Anti-PD-1 and anti-LAG3 antibody was diluted with PBS in order to reach final concentration of 1 mg/ml.
• 4SC-202 was administered at 20 mg/kg twice daily, based on 4SC-202 free base. • The anti-PD-1 and anti-LAG3 antibody was injected at 10 mg/kg per injection,
• 4SC-202 was administered by oral gavage (per os, PO) via a gavage tube. • The antibodies were injected intraperitoneally into the peritoneal cavity of mice. • In all cases, the administration volume was 10 mUkg adjusted to the most recent individual body weight of mice.
Colon 38 (C38, a C57BL/6J mouse colon adenocarcinoma cell line) tumor fragments.
The C38 fragments are stored frozen in DMSO/SVF/RPMI 1640 medium (10/10/80) in liquid nitrogen until use. In the study part 1, C38 frozen fragments were thawed at 37° C. for 5 min, rinsed twice in RPMI 1640 medium before subcutaneous (SC) implantation in mice.
Thirty-five (35) female C57BL/6J mice were subcutaneously implanted into the right flank with C38 tumor fragments. […]

[3] = 24 heavily pre-treated patients with different types of blood cancer

In the case of Cn1cc(-c2ccc(S(=O)(=O)n3ccc(/C=C/C(=O)Nc4ccccc4N)c3)cc2)cn1 [Compound 4SC-202, (E)-N-(2-aminophenyl)-3-(1-((4-(1-methyl-1H-pyrazol-4-yl)phenyl)sulfonyl)-1H-pyrrol-3-yl)acrylamide], the disease control [1, 3] is listed as 83 % of the patients, the long-term stabilization [1, 3] is listed as 50 % of patients and the tolerability [1, 3] is listed as “well tolerated with few and/or manageable adverse events”. For the same compound, the “complete remission, duration” value ([1]; one complete remission among 24 heavily pre-treated patients) was 28 months, the “partial responder, duration” value ([1]; one partial responder among 24 heavily pre-treated patients) was 8 months and the “tumor growth reduction / anti-tumoral efficacy (in words)” value [2] was “reduced tumor growth to a certain extent”.
